From patent US10940139B2, “Compounds that interact with the Ras superfamily for the treatment of cancers, inflammatory diseases, rasopathies, and fibrotic disease” (Shy Therapeutics LLC, priority 2017, dated 2021)

How the values were obtained:
[1] = test system: TNFα production in RAW 264.7 macrophage cell line; assay: Mouse TNF alpha quantification assay (LPS-stimulated macrophages, ELISA); assay type: cell-based; settings: RAW264.7, RAW 264.7 murine leukemia virus transformed macrophage cell lines, LPS stimulation, read-out: TNF-α % Inhibition at 30 μM
[2] = test system: IL6 production in RAW 264.7 macrophage cell line; assay: Mouse IL6 quantification assay (LPS-stimulated macrophages, ELISA); assay type: cell-based; settings: RAW264.7, RAW 264.7 murine leukemia virus transformed macrophage cell lines, LPS stimulation, read-out: IL-6 % Inhibition at 30 μM

SMILES	inhibition at 30 µM [1]	inhibition at 30 µM [2]
O=C(c1csc2c(O)nc(-c3ccccn3)nc12)N1CCOC(c2nccs2)C1 (centres unmarked) [drawing 2171]	1 to 25%	51 to 75%
COc1ccnc(-c2nc(O)c3c(Br)csc3n2)c1 [drawing 2172]	26 to 50%	76 to 100%
COc1ccc(CCN(C)C(=O)c2csc3nc(-c4ccccn4)nc(N4CCOCC4)c23)cn1 [drawing 2173]	0%	26 to 50%
COc1ncc(CCNC(=O)c2csc3nc(-c4ccccn4)nc(N4CCOCC4)c23)cn1 [drawing 2175]	0%	1 to 25%
O=C(NCCc1cncs1)c1csc2nc(-c3ccccn3)nc(N3CCOCC3)c12 [drawing 2176]	0%	1 to 25%
CC(C)(C(=O)Nc1ccnc(-c2ccccn2)n1)c1ccc(C#N)cc1 [drawing 2177]	0%	1 to 25%
CC(C)(C(=O)Nc1nc(-c2ccccn2)nc2sccc12)c1ccc(C#N)cc1 [drawing 2178]	1 to 25%	76 to 100%
O=C(c1csc2c(O)nc(-c3ccccn3)nc12)N1CCN(c2cccc(F)c2)CC1 [drawing 2179]	0%	76 to 100%
O=C(c1csc2c(O)nc(-c3ccccn3)nc12)N1CCN(c2ccc(F)cc2)CC1 [drawing 2180]	0%	26 to 50%
N#Cc1cccc(N2CCN(C(=O)c3csc4c(O)nc(-c5ccccn5)nc34)CC2)c1 [drawing 2181]	0%	51 to 75%
N#Cc1ccc(N2CCN(C(=O)c3csc4c(O)nc(-c5ccccn5)nc34)CC2)cc1 [drawing 2182]	0%	26 to 50%
COc1cc(OC)cc(N2CCN(C(=O)c3csc4c(O)nc(-c5ccccn5)nc34)CC2)c1 [drawing 2183]	1 to 25%	26 to 50%
COc1ccc(N2CCN(C(=O)c3csc4c(O)nc(-c5ccccn5)nc34)CC2)c(OC)c1 [drawing 2184]	0%	76 to 100%
O=C(c1csc2c(O)nc(-c3ccccn3)nc12)N1CCN(c2ccc(F)cc2F)CC1 [drawing 2185]	0%	76 to 100%
CC1CN(c2ccccc2)CCN1C(=O)c1csc2c(O)nc(-c3ccccn3)nc12 (centres unmarked) [drawing 2186]	26 to 50%	76 to 100%
O=C(c1csc2c(O)nc(-c3ccccn3)nc12)N1CCN(Cc2ccccc2)CC1 [drawing 2187]	0%	76 to 100%
COc1cccc(CN2CCN(C(=O)c3csc4c(O)nc(-c5ccccn5)nc34)CC2)c1 [drawing 2188]	0%	51 to 75%
O=C(c1csc2c(O)nc(-c3ccccn3)nc12)N1CCN(Cc2ccc(O)cc2)CC1 [drawing 2189]	1 to 25%	1 to 25%
O=C(c1csc2c(O)nc(-c3ccccn3)nc12)N1CCN(Cc2ccc(O)c(Cl)c2)CC1 [drawing 2190]	1 to 25%	76 to 100%
O=C(c1csc2c(O)nc(-c3ccccn3)nc12)N1CCOC(c2ccccc2)C1 (centres unmarked) [drawing 2191]	0%	51 to 75%
COc1ccccc1C1CN(C(=O)c2csc3c(O)nc(-c4ccccn4)nc23)CCO1 (centres unmarked) [drawing 2192]	51 to 75%	76 to 100%
COc1ccc(C2CN(C(=O)c3csc4c(O)nc(-c5ccccn5)nc34)CCO2)cc1 (centres unmarked) [drawing 2193]	1 to 25%	76 to 100%
O=C(c1csc2c(O)nc(-c3ccccn3)nc12)N1CCOC(c2ccccc2Cl)C1 (centres unmarked) [drawing 2194]	1 to 25%	76 to 100%

SMILES	inhibition at 30 µM [1]	inhibition at 30 µM [2]
O=C(c1csc2c(O)nc(-c3ccccn3)nc12)N1CCOC(Cc2ccccc2)C1 (centres unmarked) [drawing 2195]	0%	76 to 100%
COc1ccccc1C1CN(C(=O)c2csc3c(O)nc(-c4ccccn4)nc23)CCN1 (centres unmarked) [drawing 2196]	0%	26 to 50%
COc1cccc(C2CN(C(=O)c3csc4c(O)nc(-c5ccccn5)nc34)CCN2)c1 (centres unmarked) [drawing 2197]	1 to 25%	76 to 100%
COc1ccc(C2CN(C(=O)c3csc4c(O)nc(-c5ccccn5)nc34)CCN2)cc1 (centres unmarked) [drawing 2198]	0%	51 to 75%
Cc1ccccc1C1CN(C(=O)c2csc3c(O)nc(-c4ccccn4)nc23)CCN1 (centres unmarked) [drawing 2199]	1 to 25%	76 to 100%
O=C(c1csc2c(O)nc(-c3ccccn3)nc12)N1CCNC(c2ccccc2F)C1 (centres unmarked) [drawing 2200]	1 to 25%	76 to 100%
Cn1cc(C2CN(C(=O)c3csc4c(O)nc(-c5ccccn5)nc34)CCN2)cn1 (centres unmarked) [drawing 2201]	76 to 100%	76 to 100%
O=C(c1csc2c(O)nc(-c3ccccn3)nc12)N1CCNC(Cc2ccccc2)C1 (centres unmarked) [drawing 2202]	1 to 25%	76 to 100%
COc1ccnc(-c2nc(O)c3c(C#N)csc3n2)c1 [drawing 2203]	0%	1 to 25%
O=C(NCCc1ccc(O)c(O)c1)c1csc2nc(-c3ccccn3)nc(N3CCOCC3)c12 [drawing 2204]	0%	1 to 25%
COCCCCNC(=O)c1csc2nc(-c3ccccn3)nc(N3CCOCC3)c12 [drawing 2205]	1 to 25%	1 to 25%
COCCN(CCOC)c1nc(-c2ccccn2)nc2scc(C(=O)NCCc3ccc(OC)nc3)c12 [drawing 2206]	0%	1 to 25%
COc1ccc2c(c1)CCC2C(=O)Nc1ccnc(-c2ccccn2)n1 (centres unmarked) [drawing 2207]	0%	26 to 50%
N#Cc1ccc(COCC(=O)Nc2ccnc(-c3ccccn3)n2)cc1 [drawing 2208]	1 to 25%	1 to 25%
Cc1cnc(-c2ccccn2)nc1NC(=O)C(C)c1ccc(C#N)cc1 (centres unmarked) [drawing 2209]	1 to 25%	1 to 25%
CC(C(=O)Nc1nc(-c2ccccn2)nc2sccc12)c1ccc(C#N)cc1 (centres unmarked) [drawing 2210]	0%	51 to 75%
N#Cc1ccc(COCC(=O)Nc2nc(-c3ccccn3)nc3sccc23)cc1 [drawing 2211]	1 to 25%	51 to 75%
COc1cnc(CN)[nH]c1=O [drawing 2212]	1 to 25%	0%
COc1ccc(N2CCN(C(=O)c3csc4c(O)nc(-c5ccccn5)nc34)CC2)cc1O [drawing 2213]	0%	26 to 50%
O=C(c1csc2c(O)nc(-c3ccccn3)nc12)N1CCN(c2ccc(O)c(Cl)c2)CC1 [drawing 2214]	0%	26 to 50%
CC(c1ccccc1)N1CCN(C(=O)c2csc3c(O)nc(-c4ccccn4)nc23)CC1 (centres unmarked) [drawing 2215]	0%	51 to 75%
O=C(c1csc2c(O)nc(-c3ccccn3)nc12)N1CCNC(c2ccccc2Cl)C1 (centres unmarked) [drawing 2216]	0%	51 to 75%
O=C(c1csc2c(O)nc(-c3ccccn3)nc12)N1CCNC(c2ccc(F)cc2)C1 (centres unmarked) [drawing 2217]	0%	1 to 25%
